Reference: patent publication US20260250257A1, “ANTIBACTERIAL AND SYNERGISTIC ACTIVE COMPOUND AND USE THEREOF” (EAST CHINA UNIVERSITY OF SCIENCE AND TECHNOLOGY, priority 2023, published 2026)
≈ marks a conversion by molar mass, not a printed value.

Legend:
Assay type in all cases: cell-based
[1] = system: ATCC25922 strain (Escherichia coli); assay: Checkerboard antibacterial synergistic activity test with polymyxin E (FIC); set-up: key: FIC≤0.5 synergy; 0.5–1 additive; 1–2 indifferent; ≥2 antagonism; details: combined with polymyxin E
How it was run: (§1)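 Polymyxin E was diluted in MH broth to 16–0.015 μg/ml and the test compound to 256–4 μg/ml (two-fold series, pre-mixing concentrations), combined checkerboard-style in 96-well plates with bacterial suspension and blank controls, and incubated at 37° C. for 16 h. FIC ≤0.5 was scored synergistic, >0.5 to <1 additive, 1–2 indifferent, ≥2 antagonistic.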

[2] = system: ATCC19606 strain (Acinetobacter baumannii); assay: as above; set-up: key: FIC≤0.5 synergy; 0.5–1 additive; 1–2 indifferent; ≥2 antagonism; details: combined with polymyxin E
How it was run: as §1

[3] = system: ATCC9027 strain (Pseudomonas aeruginosa); assay: as above; set-up: key: FIC≤0.5 synergy; 0.5–1 additive; 1–2 indifferent; ≥2 antagonism; details: combined with polymyxin E
How it was run: as §1

[4] = system: ATCC13883 strain (Klebsiella pneumoniae); assay: as above; set-up: key: FIC≤0.5 synergy; 0.5–1 additive; 1–2 indifferent; ≥2 antagonism; details: combined with polymyxin E
How it was run: as §1

[5] = system: ATCC25922 strain (Escherichia coli); assay: Broth microdilution, antibacterial activity of the compound used alone
Source text: (§2) The broth microdilution method was used to test the antibacterial effects of the compounds of the present invention against various Gram-negative bacterial strains when used alone.

[6] = system: ATCC19606 strain (Acinetobacter baumannii); assay: as above
Source text: as §2

[7] = system: ATCC9027 strain (Pseudomonas aeruginosa); assay: as above
Source text: as §2

[8] = system: ATCC13883 strain (Klebsiella pneumoniae); assay: as above
Source text: as §2

| SMILES | Synergistic activity (FIC value) ATCC25922 [1] | Synergistic activity (FIC value) ATCC19606 [2] | Synergistic activity (FIC value) ATCC9027 [3] | Synergistic activity (FIC value) ATCC13883 [4] | Antibacterial activity of the compound of Formula I, ATCC25922 [5] | Antibacterial activity of the compound of Formula I, ATCC19606 [6] | Antibacterial activity of the compound of Formula I, ATCC9027 [7] | Antibacterial activity of the compound of Formula I, ATCC13883 [8] | MIC ([5]; read-out: Antibacterial activity of the compound of Formula I, ATCC25922) | MIC ([6]; read-out: Antibacterial activity of the compound of Formula I, ATCC19606) | MIC ([7]; read-out: Antibacterial activity of the compound of Formula I, ATCC9027) | MIC ([8]; read-out: Antibacterial activity of the compound of Formula I, ATCC13883) |
| --- | --- | --- | --- | --- | --- | --- | --- | --- | --- | --- | --- | --- |
| CSc1cc2c(Cl)cccn2c1-c1nc(N=C2NCCCN2)sc1Cl [Compound I-196] | 0.52 | 0.13 | 1.25 | 0.19 | 256 µg/mL | 256 µg/mL | 256 µg/mL | 256 µg/mL |  |  |  |  |
| CC(C)c1ccccc1-c1coc(N=C(N)N)n1 [Compound I-15] | 0.5 | 1.25 | 1.25 | 1.25 | 256 µg/mL | 256 µg/mL | 256 µg/mL | 256 µg/mL |  |  |  |  |
| Cc1sc(N=C(N)N)nc1-c1cccc2ccoc12 [Compound I-70] | 1.25 | 0.26 | 1.25 | 1.25 | 256 µg/mL | 256 µg/mL | 256 µg/mL | 256 µg/mL |  |  |  |  |
| Clc1ccc(Oc2cc(Cl)ccc2-c2c[nH]c(N=C3NCCCN3)n2)c(Cl)c1 [Compound I-150] | 0.14 | 0.31 | 0.06 | 0.09 | 256 µg/mL | 256 µg/mL | 256 µg/mL | 256 µg/mL |  |  |  |  |
| CSc1cc2ccc(C)cn2c1-c1nc(N=C(N)N)sc1C [Compound I-126] | 0.2 | 0.04 | 0.28 | 0.13 | 256 µg/mL | 256 µg/mL | 256 µg/mL | 256 µg/mL |  |  |  |  |
| CC(C)c1ccccc1-c1nc(N=C2NCCCN2)sc1Br [Compound I-164] | 0.39 | 0.15 | 0.62 | 0.33 | 256 µg/mL | 256 µg/mL | 256 µg/mL | 256 µg/mL |  |  |  |  |
| C[S+]([O-])c1cccc(-c2csc(N=C(N)N)n2)c1 (stereo not drawn) [Compound I-27] | 1.25 | 0.51 | 1.25 | 1.25 | 256 µg/mL | 256 µg/mL | 256 µg/mL | 256 µg/mL |  |  |  |  |
| CC(C)(C)c1ccc(-c2c[nH]c(N=C(N)N)n2)cc1 [Compound I-12] | 0.5 | 0.28 | 0.63 | 0.25 | 256 µg/mL | 256 µg/mL | 256 µg/mL | 256 µg/mL |  |  |  |  |
| CCc1sc(N=C2NCCCN2)nc1-c1c(SC)cc2ccc(C)cn12 [Compound I-193] | 0.53 | 1.25 | 1.25 | 1.25 | 256 µg/mL | 256 µg/mL | 256 µg/mL | 256 µg/mL |  |  |  |  |
| CCOC(=O)c1ccc(-c2c[nH]c(N=C(N)N)n2)cc1 [Compound I-25] | 0.38 | 0.13 | 0.53 | 0.31 | 256 µg/mL | 256 µg/mL | 256 µg/mL | 256 µg/mL |  |  |  |  |
| NC(N)=Nc1nc(-c2ccc(Cl)cc2)cs1 [Compound I-38] | 0.5 | 0.28 | 0.63 | 0.25 | 256 µg/mL | 256 µg/mL | 256 µg/mL | 256 µg/mL |  |  |  |  |
| CC(C)=CCOc1cc(OCC=C(C)C)cc(-c2nc(N=C(N)N)[nH]c2C)c1 [Compound I-49] | 1.25 | 0.25 | 0.53 | 0.53 | 256 µg/mL | 256 µg/mL | 256 µg/mL | 256 µg/mL |  |  |  |  |
| Clc1cccc(-c2csc(N=C3NCCCN3)n2)c1Cl [Compound I-184] | 0.5 | 0.28 | 0.63 | 0.25 | 256 µg/mL | 256 µg/mL | 256 µg/mL | 256 µg/mL |  |  |  |  |
| CNc1cc(C)cc(-c2csc(N=C(N)N)n2)c1 [Compound I-23] | 0.63 | 0.52 | 1.25 | 0.52 | 256 µg/mL | 256 µg/mL | 256 µg/mL | 256 µg/mL |  |  |  |  |
| NC(N)=Nc1nc(-c2cc(C(F)(F)F)cc(C(F)(F)F)c2)cs1 [Compound I-44] | 0.31 | 0.14 | 0.52 | 0.25 |  |  |  |  | 256 µg/mL (≈ 723 µM) | 256 µg/mL (≈ 723 µM) | 256 µg/mL (≈ 723 µM) | 256 µg/mL (≈ 723 µM) |
